Data set [1] in a line: Equilibrium dialysis, free fraction in plasma. The format is in vitro ADME, mouse. Conditions: matrix not given. As to the method:
In brief, a 96-well equilibrium dialysis apparatus was used to determine the free fraction in plasma and the brain (HT Dialysis LLC, Gales Ferry, CT). Isotonic buffer was prepared using 8.69 g of Na2HPO4, 1.9 g of KH2PO4, and 4.11 g of NaCl dissolved in 1 L of Milli-Q water, and the pH was adjusted to 7.4. Artificial CSF was prepared using 3.652 g of NaCl, 93.2 mg of KCl, 119.96 mg of MgCl2, 92.61 mg of CaCl2, and 268 mg of Na2HPO4 heptahydrate dissolved in 0.5 L of water, and the pH was adjusted to 7.4. Membranes [12–14 (plasma) or 6–9 (brain) kDA cutoff] were conditioned in deionized water for 60 min, followed by conditioning in 80:20 deionized water/ethanol for 20 min, and then rinsed in isotonic buffer (plasma) or […] (brain) before use. Female CD1 mouse plasma was defrosted and centrifuged for 10 min at 3000 rpm (Allegra X12-R, Beckman Coulter, USA). The control mouse brain was homogenized in two volumes of artificial CSF in a Covaris S2 acoustic homogenizer. Plasma or brain homogenate was spiked with the test compound (10 μg mL^–1), and 150 μL aliquots (n = 3 replicate determinations) were loaded into the 96-well equilibrium dialysis plate. Dialysis versus 150 μL of isotonic buffer (plasma) or artificial CSF (brain) was carried out for 5 h in a temperature-controlled incubator at 37 °C (Barworld Scientific Ltd, UK) using an orbital microplate shaker at 125 rpm (Barworld Scientific Ltd, UK). At the end of the incubation period, aliquots of plasma/homogenized brain or buffer were transferred to a clean 96-well plate, and the composition in each well was balanced with control fluid, such that the volume of buffer to the matrix was the same. Sample extraction was performed by the addition of 400 μL of acetonitrile containing an appropriate internal standard. Samples were allowed to mix for 1 min and then centrifuged at 3000 rpm in 96-well blocks for 10 min (Allegra X12-R, Beckman Coulter, USA). All samples were analyzed by means of UPLC/MS/MS on a Quattro Premier XE or Micro TQs mass spectrometer (Waters Corporation, USA). The unbound fraction was determined as the ratio of the peak area in the buffer to that in the matrix.
For orientation: In equilibrium dialysis free small molecules cross a membrane that holds back macromolecules.

The nature of data set [2]: Human microsomal intrinsic clearance. The format is in vitro ADME. The settings on record: second value of mouse/human cell.
A further data set in a line: Pharmacokinetics in rats. The format is in vivo, Sprague Dawley rats.
Data set [3] deals with Tb927.8.6290 overexpressing cell lines (V241F/A258V). In words: Drug sensitivity, line overexpressing Tb927.8.6290 V241F/A258V. The format is cell-based, T. b. brucei. Conditions: for EC50: Trypanosoma brucei. As to the method: (§1) Drug sensitivity assays were carried out with BSF T. b. brucei “single marker” S427 or BSF T. b. brucei, Lister 427, MiTat 1.2, clone 221a 2T1 cells,[45] cells grown at 37 °C with 5% CO2 in an HMI-9T medium[46] as previously described.[47] 2T1 cells were initially maintained with 1 μg mL^–1 puromycin and 1 μg mL^–1 phleomycin prior to transfection or 2.5 μg mL^–1 hygromycin and 1 μg mL^–1 phleomycin after transfection. Induction of overexpression was achieved by the addition of 1 μg mL^–1 tetracycline to the culture medium.
(§2) The following primers were used to PCR amplify Tb927.8.6290 from genomic DNA isolated from wild-type and 38-resistant trypanosomes 5′-[…]-3′ (PacI site in bold) and 5′-[…]-3′ (BamHI site in bold). The PCR products (1272 bp) were then cloned into the pRPa plasmid.[53] The accuracy of the plasmid constructs was confirmed by in-house Sanger sequencing and then linearized with AscI prior to transfection. The linearized plasmids were introduced into 2T1 T. b. brucei cells following removal of puromycin from the media and selected with 2.5 μg mL^–1 hygromycin and 1 μg mL^–1 phleomycin. Two independent clones were selected for further studies.

Data set [4] in a line: Mammalian cell counter screen (MRC-5). The format is cell-based, human. Conditions: human, MRC-5 fibroblasts; mean values; number of replicates in parentheses. As to the method: Drug sensitivity assays with BSF T. b. brucei “single marker” S427 and human MRC-5 fibroblasts were conducted as previously described.[43]
(Counterscreens check selectivity or assay interference.)

The test system of the next data set is T. b. brucei S427. The data set can be described thus: Stage 1 efficacy study in rats. The format is in vivo, male SD rats. The settings on record: infected rats, single dose, 100 mg kg^–1 PO. As for the experimental part:
Stage 1 efficacy experiments using T. b. brucei S427 were performed as described,[44] with minor modifications. In brief, male SD rats (38) or female HRN (16) and NMRI (16, 38) mice (3–5 per group) were injected intraperitoneally with 1 × 10^4 BSFs of T. brucei. These BSFs come from a stock of cryopreserved stabilates containing 10% glycerol. The stabilate was suspended in 20 mM Hanks’ balanced salt solution with glucose to obtain a trypanosome concentration of 5 × 10^4 cells mL^–1. Each mouse was injected with 0.2 mL. […] Dose concentrations were 1.25, 2.5, 5, 7.5, 10, 30, and 50 mg kg^–1 free base (16) or 100 mg kg^–1 free base (38). The doses were prepared fresh daily, using 5% DMSO/40% PEG400/55% Milli-Q (16) or 15% solutol/85% Milli-Q (38), and the dose volume was 10 mL kg^–1. One group of three mice was an untreated control group.

A short description of data set [5]: Tolerability / maximum tolerated dose. Conditions: NMRI mice, IP.
In data set [6] the test system is Tb927.8.6290 overexpressing cell lines (A258P). The data set can be described thus: Drug sensitivity, line overexpressing Tb927.8.6290 A258P. The format is cell-based, T. b. brucei. The settings on record: for EC50: Trypanosoma brucei. As to the method:
as §1, §2

Setting [7] is: male, Sprague Dawley, whole blood, rat, PO, 10 mg kg^–1.

Where two headings read alike, the source gives them in different places.

The values below come from publication PMC10350920, “Development of a 2,4-Diaminothiazole Series for the Treatment of Human African Trypanosomiasis Highlights the Importance of Static–Cidal Screening of Analogues” (Journal of Medicinal Chemistry, 2023).

Procedure for Pharmacokinetics in rats: To determine compound exposure, compounds were dosed by gavage (16, 38) at 10 mg kg^–1 free base (16, 38), dose volume; and 5 mL kg^–1 (16, 38), dose vehicle (10% DMSO/40% PEG400/50% Milli-Q) to female NMRI mice, n = 3/dose level (16), or Sprague Dawley rats (38). Blood samples were taken from each mouse/rat at 5, 15, and 30 min, 1, 2, 4, 6, and 8 h postdose and mixed with two volumes of distilled water. After suitable sample preparation, the concentration of the test compound in blood was determined by UPLC–MS/MS using a Quattro Premier XE (Waters, USA). Pharmacokinetic parameters were derived from the mean blood concentration–time curve using PKsolutions software v 2.0 (Summit Research Services, USA).

Consider “(4-Amino-2-(cyclohexylamino)thiazol-5-yl)(2,6-difluorophenyl)methanone [Compound 16]”, for which, in data set [1], the “Fu (free fraction)” value turned out to be 0.03.

As for `CC(C)(O)CC(=O)c1sc(Nc2ccc(F)c(F)c2)nc1N` [Compound 38, 1-(4-Amino-2-((3,4-difluorophenyl)amino)thiazol-5-yl)-3-hydroxy-3-methylbutan-1-one], the “CLint (human)” value in data set [2] is less than 0.5 mL·min/g. In “Pharmacokinetics in rats” (male SD rats, 10 mg kg^–1 PO), the “free blood Cmax” value stood at 195 ng mL^–1. For the same compound, in “Pharmacokinetics in rats” (setting [7]), the AUC (as a rule, the area under the concentration-time curve, a measure of exposure) is 7830 ng·h/mL. Moreover, in the data set “Pharmacokinetics in rats” (setting [7]), the Cmax (as a rule, the peak of the concentration-time curve) was 1400 ng/mL. Moreover, the Tmax – broadly, the time from dosing to the highest level – in the data set “Pharmacokinetics in rats” (setting [7]) came out at 4 h. Also, the EC50 in data set [3] (read-out: EC50, V241F/A258V +TET) is 12 ± 0.69 µM; in data set [3] (read-out: EC50, V241F/A258V –TET), 0.27 ± 0.018 µM; in data set [4], 46 µM; in data set [6] (read-out: EC50, A258P +TET), 12 ± 0.25 µM; in data set [6] (read-out: EC50, A258P –TET), 0.31 ± 0.009 µM. For the same compound, in data set [3] (−TET vs +TET EC50, in brackets), the “fold shift, V241F/A258V” value came out at 45. The “stage 1 efficacy, parasitemia” value in the data set on T. b. brucei S427 is given as “no reduction in parasitemia”. Besides, the “maximum dose chosen following maximum tolerated dose study” value in data set [5] was 100 mg kg^–1. Besides, the “fold shift, A258P” value in data set [6] (−TET vs +TET EC50, in brackets) stood at 40.
